Experimental data published in ChEMBL document CHEMBL4000244, “Probing A-form DNA: A fluorescent aminosugar probe and dual recognition by anthraquinone-neomycin conjugates” (Bioorg Med Chem, 2017).

What was measured:
[1] = Binding affinity to 5'-GCCCGGCG-3' DNA hairpin assessed as change in fluorescence intensity at 1 uM after 45 mins by fluorescence quenching analysis relative to control
[2] = Binding affinity to 5'-GGCGGGGC-3' DNA hairpin assessed as change in fluorescence intensity at 1 uM after 45 mins by fluorescence quenching analysis relative to control
[3] = Binding affinity to 5'-GGGCGGGC-3' DNA hairpin assessed as change in fluorescence intensity at 1 uM after 45 mins by fluorescence quenching analysis relative to control
[4] = Binding affinity to 5'-GGCCCGCC-3' DNA hairpin assessed as change in fluorescence intensity at 1 uM after 45 mins by fluorescence quenching analysis relative to control
[5] = Binding affinity to 5'-CCCCCCCC-3' DNA hairpin assessed as change in fluorescence intensity at 1 uM after 45 mins by fluorescence quenching analysis relative to control
[6] = Binding affinity to 5'-CCGCCGCG-3' DNA hairpin assessed as change in fluorescence intensity at 1 uM after 45 mins by fluorescence quenching analysis relative to control
[7] = Binding affinity to 5'-GGCGGGCG-3' DNA hairpin assessed as change in fluorescence intensity at 1 uM after 45 mins by fluorescence quenching analysis relative to control
[8] = Binding affinity to 5'-CCCCCGGC-3' DNA hairpin assessed as change in fluorescence intensity at 1 uM after 45 mins by fluorescence quenching analysis relative to control
[9] = Binding affinity to 5'-GCCCCGCC-3' DNA hairpin assessed as change in fluorescence intensity at 1 uM after 45 mins by fluorescence quenching analysis relative to control
[10] = Binding affinity to 5'-GGGCCGGG-3' DNA hairpin assessed as change in fluorescence intensity at 1 uM after 45 mins by fluorescence quenching analysis relative to control
[11] = Binding affinity to 5'-CGCCGCGC-3' DNA hairpin assessed as change in fluorescence intensity at 1 uM after 45 mins by fluorescence quenching analysis relative to control
[12] = Binding affinity to 5'-CCCGCGGC-3' DNA hairpin assessed as change in fluorescence intensity at 1 uM after 45 mins by fluorescence quenching analysis relative to control
[13] = Binding affinity to 5'-GCCGCGGG-3' DNA hairpin assessed as change in fluorescence intensity at 1 uM after 45 mins by fluorescence quenching analysis relative to control
[14] = Binding affinity to 5'-GGGCCCCC-3' DNA hairpin assessed as change in fluorescence intensity at 1 uM after 45 mins by fluorescence quenching analysis relative to control
[15] = Binding affinity to 5'-CCGCCCCC-3' DNA hairpin assessed as change in fluorescence intensity at 1 uM after 45 mins by fluorescence quenching analysis relative to control
[16] = Binding affinity to 5'-CGCCCCCG-3' DNA hairpin assessed as change in fluorescence intensity at 1 uM after 45 mins by fluorescence quenching analysis relative to control
[17] = Binding affinity to 5'-CGGGGGGC-3' DNA hairpin assessed as change in fluorescence intensity at 1 uM after 45 mins by fluorescence quenching analysis relative to control
[18] = Binding affinity to 5'-CGCGCGCG-3' DNA hairpin assessed as change in fluorescence intensity at 1 uM after 45 mins by fluorescence quenching analysis relative to control
[19] = Binding affinity to 5'-GGCGCGGC-3' DNA hairpin assessed as change in fluorescence intensity at 1 uM after 45 mins by fluorescence quenching analysis relative to control
[20] = Binding affinity to 5'-GGCCGCCC-3' DNA hairpin assessed as change in fluorescence intensity at 1 uM after 45 mins by fluorescence quenching analysis relative to control
[21] = Binding affinity to 5'-GGGGGCGC-3' DNA hairpin assessed as change in fluorescence intensity at 1 uM after 45 mins by fluorescence quenching analysis relative to control
[22] = Binding affinity to 5'-GGCCCGCG-3' DNA hairpin assessed as change in fluorescence intensity at 1 uM after 45 mins by fluorescence quenching analysis relative to control
[23] = Binding affinity to 5'-CGGCCCGG-3' DNA hairpin assessed as change in fluorescence intensity at 1 uM after 45 mins by fluorescence quenching analysis relative to control
[24] = Binding affinity to 5'-GGGGGCCG-3' DNA hairpin assessed as change in fluorescence intensity at 1 uM after 45 mins by fluorescence quenching analysis relative to control
[25] = Binding affinity to 5'-CGCCCGCG-3' DNA hairpin assessed as change in fluorescence intensity at 1 uM after 45 mins by fluorescence quenching analysis relative to control
[26] = Binding affinity to 5'-CGCGCCCC-3' DNA hairpin assessed as change in fluorescence intensity at 1 uM after 45 mins by fluorescence quenching analysis relative to control
[27] = Binding affinity to 5'-CCGGCGGC-3' DNA hairpin assessed as change in fluorescence intensity at 1 uM after 45 mins by fluorescence quenching analysis relative to control
[28] = Binding affinity to 5'-CCCCCGGG-3' DNA hairpin assessed as change in fluorescence intensity at 1 uM after 45 mins by fluorescence quenching analysis relative to control
[29] = Binding affinity to 5'-GCGGCCCC-3' DNA hairpin assessed as change in fluorescence intensity at 1 uM after 45 mins by fluorescence quenching analysis relative to control
[30] = Binding affinity to 5'-GGGCGCCC-3' DNA hairpin assessed as change in fluorescence intensity at 1 uM after 45 mins by fluorescence quenching analysis relative to control
[31] = Binding affinity to 5'-GCCGGCGC-3' DNA hairpin assessed as change in fluorescence intensity at 1 uM after 45 mins by fluorescence quenching analysis relative to control
[32] = Binding affinity to 5'-GCCGGCGG-3' DNA hairpin assessed as change in fluorescence intensity at 1 uM after 45 mins by fluorescence quenching analysis relative to control
[33] = Binding affinity to 5'-GCCGGGCG-3' DNA hairpin assessed as change in fluorescence intensity at 1 uM after 45 mins by fluorescence quenching analysis relative to control
[34] = Binding affinity to 5'-GGCCCGGC-3' DNA hairpin assessed as change in fluorescence intensity at 1 uM after 45 mins by fluorescence quenching analysis relative to control
[35] = Binding affinity to 5'-CCGGGGCG-3' DNA hairpin assessed as change in fluorescence intensity at 1 uM after 45 mins by fluorescence quenching analysis relative to control
[36] = Binding affinity to 5'-GGCCGCGG-3' DNA hairpin assessed as change in fluorescence intensity at 1 uM after 45 mins by fluorescence quenching analysis relative to control

- Activity [1]: 51.9%
- Activity [2]: 43.2%
- Activity [3]: 44.1%
- Activity [4]: 31.2%
- Activity [5]: 15%
- Activity [6]: 44%
- Activity [7]: 48.3%
- Activity [8]: 33.7%
- Activity [9]: 40.2%
- Activity [10]: 37.5%
- Activity [11]: 46.6%
- Activity [12]: 45.4%
- Activity [13]: 52.7%
- Activity [14]: 15%
- Activity [15]: 41.4%
- Activity [16]: 31.8%
- Activity [17]: 32.2%
- Activity [18]: 43.6%
- Activity [19]: 49.4%
- Activity [20]: 37.9%
- Activity [21]: 35.6%
- Activity [22]: 34.3%
- Activity [23]: 54.4%
- Activity [24]: 29.9%
- Activity [25]: 45.7%
- Activity [26]: 36.3%
- Activity [27]: 47.4%
- Activity [28]: 35.1%
- Activity [29]: 37.2%
- Activity [30]: 65.9%
- Activity [31]: 51.9%
- Activity [32]: 53.8%
- Activity [33]: 49.7%
- Activity [34]: 37%
- Activity [35]: 37.5%
- Activity [36]: 49.8%
SMILES: NCC1O[C@H](O[C@H]2[C@@H](O)[C@H](O[C@@H]3[C@@H](O)[C@H](N)C[C@H](N)[C@H]3O[C@H]3O[C@H](CN)[C@@H](O)[C@H](O)[C@H]3N)O[C@@H]2CSCCNC(=O)CCSCC(=O)Nc2ccc(-c3c4ccc(=O)cc-4oc4cc(O)ccc34)c(C(=O)O)c2)[C@H](N)[C@@H](O)[C@@H]1O (stereo partly specified)
